Measured values: ChEMBL document CHEMBL1147930, “Selective inhibition of the interaction of C1q with immunoglobulins and the classical pathway of complement activation by steroids and triterpenoids sulfates” (Bioorg Med Chem, 2007)
Where a name gives a salt, the structure may show the parent alone.

How the values were obtained:
[1] = Toxicity in sheep erythrocytes assessed as intrinsic hemolytic activity; assay type: cell-based, Ovis aries, Erythrocyte; conditions: read-out: ED50 (the source's name)
[2] = Inhibition of classical pathway of complement activation in sheep erythrocytes in presence of guinea-pig serum; assay type: functional, cell-based, Ovis aries; conditions: erythrocyte
[3] = Inhibition of classical pathway of complement activation in sheep erythrocytes in presence of human serum; assay type: functional, cell-based, Ovis aries; conditions: erythrocyte
[4] = Inhibition of C1q immunoglobulin interaction by hemolytic method; design: species or system Homo sapiens
[5] = Inhibition of C1q immunoglobulin interaction by ELISA; design: species or system Homo sapiens
[6] = Inhibition of alternative pathway of complement activation in rabbit erythrocytes in presence of human serum; assay type: functional, cell-based, Oryctolagus cuniculus; conditions: erythrocyte

Row | SMILES | HC50 [1] | IC50 [2] | IC50 [3] | Ki [4] | Ki [5] | IC50 [6]
1 | C[C@]12CC[C@H]3[C@@H](CC=C4C[C@@H](OS(=O)(=O)O)CC[C@@]43C)[C@@H]1CC[C@@H]2C(=O)O | > 1600 µM | 410 µM | – | – | – | –
2 | C[C@H](CCC(=O)O)[C@H]1CC[C@H]2[C@@H]3[C@H](OS(=O)(=O)O)C[C@@H]4C[C@H](OS(=O)(=O)O)CC[C@]4(C)[C@H]3C[C@H](OS(=O)(=O)O)[C@]12C [CHOLIC ACID TRISULFATE] | > 1400 µM | 101 µM | – | – | – | –
3 | C=C(C)[C@@H]1CC[C@]2(COS(=O)(=O)O)CC[C@]3(C)[C@H](CC[C@@H]4[C@@]5(C)CC[C@H](OS(=O)(=O)O)C(C)(C)[C@@H]5CC[C@]43C)[C@@H]12 [BETULIN DISULFATE] | 850 µM | 6.9 µM | 14.6 µM | 8.6 µM | 42.2 µM | 414 µM
4 | C[C@H](CCC(=O)O)[C@H]1CC[C@H]2[C@@H]3CC=C4C[C@@H](OS(=O)(=O)O)CC[C@]4(C)[C@H]3CC[C@]12C | > 400 µM | 23.7 µM | – | – | – | –
5 | CC1(C)[C@@H](OS(=O)(=O)O)CC[C@]2(C)[C@H]3CC[C@@H]4[C@H]5[C@H](C6(C)CC6(Cl)Cl)CC[C@]5(COS(=O)(=O)O)CC[C@@]4(C)[C@]3(C)CC[C@@H]12 (some centres not stated) | 85 µM | 6.8 µM | – | – | – | –
6 | C[C@H](CCC(=O)O)[C@H]1CC[C@H]2[C@@H]3CC[C@@H]4C[C@H](OS(=O)(=O)O)CC[C@]4(C)[C@H]3C[C@H](OS(=O)(=O)O)[C@]12C [DEOXYCHOLIC ACID DISULFATE] | > 1600 µM | 186 µM | – | – | – | –
7 | CC1(C)CC[C@]2(C(=O)O)CC[C@]3(C)C(=CCC4[C@@]5(C)CC[C@H](OS(=O)(=O)O)C(C)(C)[C@@H]5CC[C@]43C)[C@@H]2C1 (some centres not stated) [OLEANOLIC ACID SULFATE] | 15 µM | – | – | – | – | –
8 | C=C(C)[C@@H]1CC[C@]2(C(=O)O)CC[C@]3(C)[C@H](CC[C@@H]4[C@@]5(C)CC[C@H](OS(=O)(=O)O)C(C)(C)[C@@H]5CC[C@]43C)[C@@H]12 [BETULINIC ACID SULFATE] | > 900 µM | 9.9 µM | 53.8 µM | 14.6 µM | 57.3 µM | 640 µM
9 | C[C@H]1[C@H](C)CC[C@]2(C(=O)O)CC[C@]3(C)C(=CC[C@@H]4[C@@]5(C)CC[C@H](OS(=O)(=O)O)C(C)(C)[C@@H]5CC[C@]43C)[C@H]12 [URSOLIC ACID SULFATE] | > 900 µM | 25.2 µM | – | – | – | –
10 | C=C(C)[C@@H]1CC[C@]2(COP(=O)(O)O)CC[C@]3(C)[C@H](CC[C@@H]4[C@@]5(C)CC[C@H](OP(=O)(O)O)C(C)(C)[C@@H]5CC[C@]43C)[C@@H]12 [BETULIN DIPHOSPHATE] | > 800 µM | 42.6 µM | – | – | – | –
